Where two headings read alike, the source gives them in different places.
Columns and labels:
[1] = biological target: T1, recombinant human A1 receptors (hA1) (Homo sapiens, UniProt P30542); test: Radioligand binding ([3H]CPX) at recombinant human A1 receptors in HEK-293 cells; settings: read-out: hA1 Ki, values marked (h); Table 1; recombinant human A1, HEK 293
T1 sequence (P30542 1-326): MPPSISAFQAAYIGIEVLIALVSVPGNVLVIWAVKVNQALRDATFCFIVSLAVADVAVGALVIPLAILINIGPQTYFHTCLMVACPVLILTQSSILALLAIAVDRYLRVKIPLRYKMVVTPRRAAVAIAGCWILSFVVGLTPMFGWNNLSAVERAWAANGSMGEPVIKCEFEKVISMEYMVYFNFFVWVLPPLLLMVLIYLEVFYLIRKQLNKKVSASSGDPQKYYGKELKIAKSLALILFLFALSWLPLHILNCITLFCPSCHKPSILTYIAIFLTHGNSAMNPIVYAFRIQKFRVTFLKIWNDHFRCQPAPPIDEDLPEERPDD
Description: (§1) All non-radioactive compounds were initially dissolved in DMSO, and diluted with buffer to the final concentration, where the amount of DMSO never exceeded 2%. Incubations were terminated by rapid filtration over Whatman GF/B filters, using a Brandell cell harvester (Brandell, Gaithersburg, Md.). The tubes were rinsed three times with 3 mL buffer each.
(§2) At least six different concentrations of competitor, spanning 3 orders of magnitude adjusted appropriately for the IC50 of each compound, were used. IC50 values, calculated with the nonlinear regression method implemented in (Graph-Pad Prism, San Diego, Calif.), were converted to apparent Ki values as described.
(§3) The potency of the xanthine derivatives at human A2B receptors was evaluated using two binding assays. […] In order to determine selectivity, the xanthines were evaluated using standard binding assays at A1, A2A, and A3 receptors.

[2] = biological target: T2, rat A2A receptors (rA2A) (Rattus norvegicus, UniProt P30543); test: Displacement of [3H]CGS 21680 binding in rat striatal membranes; settings: read-out: rA2A Ki or IC50
T2 construct: to A2A receptors from rat striatal membranes was performed as described; from tissue; host or cells: rat striatal membranes
T2 sequence (P30543 whole entry): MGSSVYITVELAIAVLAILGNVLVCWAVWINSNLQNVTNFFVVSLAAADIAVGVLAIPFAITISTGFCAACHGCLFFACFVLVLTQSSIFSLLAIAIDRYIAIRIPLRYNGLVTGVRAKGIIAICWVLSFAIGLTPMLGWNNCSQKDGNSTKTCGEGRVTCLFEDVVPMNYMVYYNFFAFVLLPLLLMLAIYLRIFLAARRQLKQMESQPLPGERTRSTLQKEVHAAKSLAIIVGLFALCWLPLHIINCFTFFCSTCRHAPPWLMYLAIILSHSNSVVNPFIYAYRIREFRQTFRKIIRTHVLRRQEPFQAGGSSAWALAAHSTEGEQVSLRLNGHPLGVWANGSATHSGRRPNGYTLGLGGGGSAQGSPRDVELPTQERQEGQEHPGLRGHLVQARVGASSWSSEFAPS

[3] = biological target: recombinant human A2A receptors (hA2A) (Homo sapiens, UniProt P29274); test: Radioligand binding (125I-ZM241385) at recombinant human A2A receptors in HEK-293 cells; settings: read-out: hA2A Ki, values marked (h); Table 1; recombinant human A2A, HEK 293
Sequence of recombinant human A2A receptors (hA2A) (P29274 whole entry): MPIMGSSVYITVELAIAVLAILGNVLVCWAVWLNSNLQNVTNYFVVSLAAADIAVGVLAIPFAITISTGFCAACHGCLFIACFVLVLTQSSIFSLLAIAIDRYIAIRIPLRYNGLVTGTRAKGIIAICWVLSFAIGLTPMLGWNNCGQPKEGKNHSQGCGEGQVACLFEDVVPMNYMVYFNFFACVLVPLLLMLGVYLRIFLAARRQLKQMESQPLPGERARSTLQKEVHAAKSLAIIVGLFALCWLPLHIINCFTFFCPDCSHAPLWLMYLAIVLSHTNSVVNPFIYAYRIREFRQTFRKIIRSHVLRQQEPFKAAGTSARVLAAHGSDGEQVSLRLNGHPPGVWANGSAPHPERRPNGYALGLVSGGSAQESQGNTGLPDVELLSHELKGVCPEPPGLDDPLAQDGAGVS
Description: as §1, §2, §3

[4] = biological target: T3, human A2B receptors (hA2B) (Homo sapiens, UniProt P29275); test: Radioligand binding ([125I]ABOPX / [3H]ZM241385) at human A2B receptors expressed in HEK-293 cells; settings: Table 1; for hA1/hA2B / hA2A/hA2B / hA3/hA2B: Ki ratio; for Ki: [125I]ABOPX, HEK-293, read-out: hA2B Ki or IC50
T3 construct: expressed in transfected cells; host or cells: HEK-293 (HEK-A2B, G418-selected)
T3 sequence (P29275 1-332): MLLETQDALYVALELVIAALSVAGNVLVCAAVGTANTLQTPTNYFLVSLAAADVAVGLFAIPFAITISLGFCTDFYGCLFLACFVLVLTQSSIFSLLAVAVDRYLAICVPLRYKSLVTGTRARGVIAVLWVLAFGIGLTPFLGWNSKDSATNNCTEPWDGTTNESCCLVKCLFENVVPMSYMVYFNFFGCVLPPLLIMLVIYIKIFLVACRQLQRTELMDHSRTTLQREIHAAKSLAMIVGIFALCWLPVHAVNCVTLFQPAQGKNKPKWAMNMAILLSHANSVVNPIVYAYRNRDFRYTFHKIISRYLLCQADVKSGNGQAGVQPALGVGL

[5] = biological target: T4, human A3 receptors (hA3) (Homo sapiens, UniProt P0DMS8); test: Displacement of [125I]ABA binding at human A3 receptors expressed in HEK-293 cells; settings: Table 1; [125I]ABA, HEK-293; read-out: hA3 Ki or IC50
T4 construct: expressed in transfected cells; host or cells: HEK-293
T4 sequence (P0DMS8 1-318): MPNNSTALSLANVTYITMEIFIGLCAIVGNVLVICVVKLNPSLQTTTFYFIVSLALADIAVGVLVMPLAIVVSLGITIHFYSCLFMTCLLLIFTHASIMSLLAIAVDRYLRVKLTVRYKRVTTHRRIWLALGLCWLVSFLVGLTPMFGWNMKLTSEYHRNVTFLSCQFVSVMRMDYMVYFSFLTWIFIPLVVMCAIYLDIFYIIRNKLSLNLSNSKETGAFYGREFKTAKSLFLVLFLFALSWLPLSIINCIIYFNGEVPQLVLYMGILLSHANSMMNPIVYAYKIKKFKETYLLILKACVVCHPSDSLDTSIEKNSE

[6] = biological target: T5, A3 receptors (r) (Rattus norvegicus, UniProt P28647); test: Binding at rat A3 receptors, values marked (r) in Table 1
T5 sequence (P28647 1-320): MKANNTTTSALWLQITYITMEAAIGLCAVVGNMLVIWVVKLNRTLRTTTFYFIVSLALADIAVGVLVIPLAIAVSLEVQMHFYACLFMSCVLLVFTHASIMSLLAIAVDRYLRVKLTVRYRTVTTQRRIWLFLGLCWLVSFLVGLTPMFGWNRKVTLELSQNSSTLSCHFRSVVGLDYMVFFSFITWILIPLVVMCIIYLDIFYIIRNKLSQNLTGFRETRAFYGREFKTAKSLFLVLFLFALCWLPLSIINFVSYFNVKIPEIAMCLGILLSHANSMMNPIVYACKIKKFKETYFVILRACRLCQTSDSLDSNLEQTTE

[7] = biological target: T6, rat A1 receptors (rA1) (Rattus norvegicus, UniProt P25099); test: Displacement of [3H]R-PIA binding in rat brain (cerebral cortical) membranes; settings: read-out: rA1 Ki or IC50
T6 construct: to A1 receptors from rat cerebral cortical membranes; from tissue; host or cells: rat cerebral cortical (brain) membranes
T6 sequence (P25099 1-326): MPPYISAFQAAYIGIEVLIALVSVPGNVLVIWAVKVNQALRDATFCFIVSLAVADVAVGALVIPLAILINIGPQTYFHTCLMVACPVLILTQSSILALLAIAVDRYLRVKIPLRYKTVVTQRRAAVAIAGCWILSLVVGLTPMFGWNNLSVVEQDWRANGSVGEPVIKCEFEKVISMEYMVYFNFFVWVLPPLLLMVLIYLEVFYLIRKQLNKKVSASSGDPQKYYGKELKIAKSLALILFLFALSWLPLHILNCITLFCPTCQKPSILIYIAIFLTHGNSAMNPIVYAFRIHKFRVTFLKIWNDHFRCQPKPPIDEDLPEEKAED

[8] = test system: myocardial infarction in dogs; test: Ninety minute LAD coronary artery occlusion/reperfusion, infarct size by TTC staining; assay type: in vivo, dog; settings: 200 nM intracoronary at 1 ml/min during occlusion and reperfusion, versus vehicle
[9] = Table 1, [3H]CGS 21680, rat striatal membranes
[10] = Table 1, [3H]R-PIA, rat brain membranes

Structure (SMILES)	Ki [1] [nM]	Ki [2, 9] [nM]	Ki [3] [nM]	hA1/hA2B [4]	hA2A/hA2B [4]	hA3/hA2B [4]	Ki [4] [nM]	Ki [5] [nM]	Ki [6] [nM]	Ki [7, 10] [nM]	Ki ([2]; Table 2) [nM]	infarct size / infarct area (IA) as %LV or %RA [8]	Ki ([7]; Table 2) [nM]
CCCCn1c(=O)c2[nH]c(-c3ccc(OCC(=O)O)cc3)nc2n(CCCC)c1=O [Compound 6]	149 ± 83	874 ± 107	2540	3.1	53	1.9	48 ± 16.9	90.3 ± 14.2	27500	43.1 ± 9.9			
CCCn1c(=O)c2[nH]c(-c3ccc(OCC(=O)Nc4ccc(C#N)cc4)cc3)nc2n(CCC)c1=O [Compound 27, 8-[4-[((4-Cyano)phenylcarbamoylmethyl)oxy]phenyl]-1,3-di-(n-propyl)xanthine]											612 ± 287	significantly reduced the infarct area	16.8 ± 3.6
C=CCn1c(=O)c2[nH]c(-c3ccc(OCC(=O)O)cc3)nc2n(CC=C)c1=O [Compound 5]	1660	4290	2370	12	17	5.8	141 ± 29	816 ± 91	173000	756 ± 147			
CCCn1c(=O)c2[nH]c(-c3ccc(OCC(=O)O)cc3)nc2n(CCC)c1=O [Compound 4a, 8-[4-[[[carboxy]methyl]oxy]phenyl]-1,3-dipropylxanthine]	175 ± 57							3910	75700				

Source: patent publication US6545002B1 (University of Virginia Patent Foundation, priority 1999, dated 2003)
